Experiment: xn = mol fraction of the nth substance listed
Settings: 100 kPa, Liquid; for viscosity: Falling or rolling sphere viscometry; for mass density: Vibrating tube method

CCCCCCCCCCC [undecane] + CCCO
Settings	mass density [kg/m3]	viscosity [mPa·s]
283.15 K, x1 = 0.1003	794.54	2.378
283.15 K, x1 = 0.2009	782.93	2.098
283.15 K, x1 = 0.3004	774.29	1.867
283.15 K, x1 = 0.3997	767.69	1.722
283.15 K, x1 = 0.4998	762.46	1.585
283.15 K, x1 = 0.6005	758.08	1.482
283.15 K, x1 = 0.6974	754.68	1.412
283.15 K, x1 = 0.8	751.72	1.371
283.15 K, x1 = 0.8963	749.45	1.356
283.15 K, x1 = 1	747.78	1.371
288.15 K, x1 = 0.1003	790.63	2.104
288.15 K, x1 = 0.2009	779.03	1.861
288.15 K, x1 = 0.3004	770.41	1.69
288.15 K, x1 = 0.3997	763.82	1.539
288.15 K, x1 = 0.4998	758.6	1.426
288.15 K, x1 = 0.6005	754.26	1.338
288.15 K, x1 = 0.6974	750.86	1.28
288.15 K, x1 = 0.8	747.96	1.246
288.15 K, x1 = 0.8963	745.71	1.235
288.15 K, x1 = 1	744.06	1.249
293.15 K, x1 = 0.1003	786.69	1.865
293.15 K, x1 = 0.2009	775.1	1.656
293.15 K, x1 = 0.3004	766.5	1.515
293.15 K, x1 = 0.3997	759.92	1.382
293.15 K, x1 = 0.4998	754.73	1.286
293.15 K, x1 = 0.6005	750.41	1.214
293.15 K, x1 = 0.6974	747.04	1.165
293.15 K, x1 = 0.8	744.17	1.138
293.15 K, x1 = 0.8963	741.96	1.13
293.15 K, x1 = 1	740.35	1.145
298.15 K, x1 = 0.1003	782.72	1.655
298.15 K, x1 = 0.2009	771.14	1.481
298.15 K, x1 = 0.3004	762.56	1.357
298.15 K, x1 = 0.3997	756	1.246
298.15 K, x1 = 0.4998	750.83	1.166
298.15 K, x1 = 0.6005	746.54	1.106
298.15 K, x1 = 0.6974	743.2	1.065
298.15 K, x1 = 0.8	740.37	1.044
298.15 K, x1 = 0.8963	738.2	1.038
298.15 K, x1 = 1	736.64	1.062
303.15 K, x1 = 0.1003	778.73	1.487
303.15 K, x1 = 0.2009	767.15	1.332
303.15 K, x1 = 0.3004	758.59	1.223
303.15 K, x1 = 0.3997	752.04	1.129
303.15 K, x1 = 0.4998	746.9	1.061
303.15 K, x1 = 0.6005	742.64	1.012
303.15 K, x1 = 0.6974	739.34	0.978
303.15 K, x1 = 0.8	736.55	0.961
303.15 K, x1 = 0.8963	734.41	0.957
303.15 K, x1 = 1	732.93	0.982
308.15 K, x1 = 0.1003	774.69	1.333
308.15 K, x1 = 0.2009	763.12	1.196
308.15 K, x1 = 0.3004	754.57	1.106
308.15 K, x1 = 0.3997	748.05	1.025
308.15 K, x1 = 0.4998	742.93	0.968
308.15 K, x1 = 0.6005	738.71	0.929
308.15 K, x1 = 0.6974	735.45	0.901
308.15 K, x1 = 0.8	732.7	0.886
308.15 K, x1 = 0.8963	730.61	0.885
308.15 K, x1 = 1	729.23	0.91
313.15 K, x1 = 0.1003	770.6	1.198
313.15 K, x1 = 0.2009	759.04	1.08
313.15 K, x1 = 0.3004	750.52	1.004
313.15 K, x1 = 0.3997	744.02	0.935
313.15 K, x1 = 0.4998	738.93	0.888
313.15 K, x1 = 0.6005	734.75	0.855
313.15 K, x1 = 0.6974	731.52	0.833
313.15 K, x1 = 0.8	728.83	0.821
313.15 K, x1 = 0.8963	726.79	0.822
313.15 K, x1 = 1	725.53	0.847
318.15 K, x1 = 0.1003	766.466	1.079
318.15 K, x1 = 0.2009	754.911	0.979
318.15 K, x1 = 0.3004	746.411	0.913
318.15 K, x1 = 0.3997	739.944	0.856
318.15 K, x1 = 0.4998	734.891	0.816
318.15 K, x1 = 0.6005	730.749	0.789
318.15 K, x1 = 0.6974	727.572	0.772
318.15 K, x1 = 0.8	724.934	0.763
318.15 K, x1 = 0.8963	722.953	0.765
318.15 K, x1 = 1	721.818	0.79
323.15 K, x1 = 0.1003	762.28	0.976
323.15 K, x1 = 0.2009	750.73	0.889
323.15 K, x1 = 0.3004	742.26	0.828
323.15 K, x1 = 0.3997	735.82	0.786
323.15 K, x1 = 0.4998	730.81	0.754
323.15 K, x1 = 0.6005	726.72	0.732
323.15 K, x1 = 0.6974	723.59	0.717
323.15 K, x1 = 0.8	721.01	0.712
323.15 K, x1 = 0.8963	719.09	0.715
323.15 K, x1 = 1	718.11	0.74
328.15 K, x1 = 0.1003	758.02	0.885
328.15 K, x1 = 0.2009	746.49	0.811
328.15 K, x1 = 0.3004	738.04	0.76
328.15 K, x1 = 0.3997	731.64	0.723
328.15 K, x1 = 0.4998	726.68	0.698
328.15 K, x1 = 0.6005	722.64	0.681
328.15 K, x1 = 0.6974	719.57	0.669
328.15 K, x1 = 0.8	717.05	0.665
328.15 K, x1 = 0.8963	715.21	0.669
328.15 K, x1 = 1	714.39	0.692
333.15 K, x1 = 0.1003	753.7	0.805
333.15 K, x1 = 0.2009	742.18	0.741
333.15 K, x1 = 0.3004	733.76	0.698
333.15 K, x1 = 0.3997	727.41	0.668
333.15 K, x1 = 0.4998	722.5	0.648
333.15 K, x1 = 0.6005	718.52	0.634
333.15 K, x1 = 0.6974	715.51	0.625
333.15 K, x1 = 0.8	713.06	0.623
333.15 K, x1 = 0.8963	711.3	0.628
333.15 K, x1 = 1	710.68	0.651
338.15 K, x1 = 0.1003	749.3	0.734
338.15 K, x1 = 0.2009	737.8	0.68
338.15 K, x1 = 0.3004	729.43	0.645
338.15 K, x1 = 0.3997	723.12	0.619
338.15 K, x1 = 0.4998	718.27	0.604
338.15 K, x1 = 0.6005	714.36	0.593
338.15 K, x1 = 0.6974	711.41	0.586
338.15 K, x1 = 0.8	709.04	0.586
338.15 K, x1 = 0.8963	707.37	0.592
338.15 K, x1 = 1	706.95	0.615
343.15 K, x1 = 0.1003	744.8	0.672
343.15 K, x1 = 0.2009	733.33	0.626
343.15 K, x1 = 0.3004	725.01	0.596
343.15 K, x1 = 0.3997	718.77	0.576
343.15 K, x1 = 0.4998	713.98	0.563
343.15 K, x1 = 0.6005	710.14	0.555
343.15 K, x1 = 0.6974	707.27	0.551
343.15 K, x1 = 0.8	704.99	0.552
343.15 K, x1 = 0.8963	703.43	0.558
343.15 K, x1 = 1	703.22	0.58
348.15 K, x1 = 0.1003	740.24	0.617
348.15 K, x1 = 0.2009	728.8	0.578
348.15 K, x1 = 0.3004	720.53	0.553
348.15 K, x1 = 0.3997	714.34	0.537
348.15 K, x1 = 0.4998	709.64	0.527
348.15 K, x1 = 0.6005	705.88	0.522
348.15 K, x1 = 0.6974	703.09	0.519
348.15 K, x1 = 0.8	700.9	0.521
348.15 K, x1 = 0.8963	699.45	0.528
348.15 K, x1 = 1	699.47	0.549
353.15 K, x1 = 0.1003	735.57	0.568
353.15 K, x1 = 0.2009	724.18	0.535
353.15 K, x1 = 0.3004	715.97	0.515
353.15 K, x1 = 0.3997	709.86	0.502
353.15 K, x1 = 0.4998	705.23	0.495
353.15 K, x1 = 0.6005	701.57	0.492
353.15 K, x1 = 0.6974	698.86	0.49
353.15 K, x1 = 0.8	696.77	0.492
353.15 K, x1 = 0.8963	695.46	0.501
353.15 K, x1 = 1	695.72	0.522
358.15 K, x1 = 0.1003	730.81	0.525
358.15 K, x1 = 0.2009	719.45	0.497
358.15 K, x1 = 0.3004	711.32	0.481
358.15 K, x1 = 0.3997	705.29	0.471
358.15 K, x1 = 0.4998	700.75	0.466
358.15 K, x1 = 0.6005	697.19	0.465
358.15 K, x1 = 0.6974	694.58	0.463
358.15 K, x1 = 0.8	692.62	0.467
358.15 K, x1 = 0.8963	691.44	0.476
358.15 K, x1 = 1	691.96	0.497
363.15 K, x1 = 0.1003	725.93	0.4864
363.15 K, x1 = 0.2009	714.64	0.4635
363.15 K, x1 = 0.3004	706.59	0.4506
363.15 K, x1 = 0.3997	700.67	0.443
363.15 K, x1 = 0.4998	696.22	0.4401
363.15 K, x1 = 0.6005	692.77	0.4396
363.15 K, x1 = 0.6974	690.27	0.4398
363.15 K, x1 = 0.8	688.42	0.4438
363.15 K, x1 = 0.8963	687.41	0.4531
363.15 K, x1 = 1	688.18	0.475
